Legend:
[1] = molecular target: T1, full length Keap1 protein / full length NRF2 protein (Homo sapiens, UniProt Q14145); experiment: NRF2-Keap1 TR-FRET Assay; assay type: binding; conditions: 25 nM Keap1-FlagHis and 50 nM biotin-NRF2 added
T1 construct: full length NRF2 protein and full length Keap1 protein (Keap1 exists a dimer) are used; His
How it was run: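 Displacement of biotinylated full-length NRF2 from full-length Keap1 read by Eu/APC TR-FRET (665/615 nm) after 1 h detection at RT. Compound, 3-fold series, first incubated with Keap1 at 37 °C for 2.25 h, NRF2 then added at 4 °C for 1.25 h; pIC50 by four-parameter equation.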

[2] = molecular target: T2, Keap1 Kelch domain (321-609) / TAMRA-labeled 16mer NRF2 peptide (ETGE motif) (Homo sapiens, UniProt Q14145); experiment: NRF2-Keap1 FP Assay (Keap1 Kelch fluorescence polarization); assay type: binding; conditions: 20 nM Keap1 (321-609), 8 nM Tamra labeled peptide
T2 construct: the Kelch domain (321-609) of Keap1 is used
T2 sequence (Q14145 321-609): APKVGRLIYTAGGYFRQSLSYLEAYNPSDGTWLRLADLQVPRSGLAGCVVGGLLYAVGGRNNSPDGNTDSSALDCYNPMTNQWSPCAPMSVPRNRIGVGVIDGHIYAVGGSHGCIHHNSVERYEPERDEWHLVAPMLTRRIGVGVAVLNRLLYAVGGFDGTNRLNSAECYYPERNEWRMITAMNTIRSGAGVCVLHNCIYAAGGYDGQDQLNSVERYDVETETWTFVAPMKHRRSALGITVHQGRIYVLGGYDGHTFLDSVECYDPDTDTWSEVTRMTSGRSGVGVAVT
How it was run: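 Compound dilutions (3-fold) were incubated 1 hr at room temperature with 20 nM Keap1 Kelch (321-609) and 8 nM TAMRA-labeled ETGE 16mer peptide. Buffer was 50 mM Tris pH 8.0, 100 mM NaCl, 5 mM MgCl2, 1 mM DTT, 2 mM CHAPS, 0.005% BSA. Fluorescence polarization (mP) was normalized to controls and fitted with a four-parameter equation to give pIC50.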

T1 sequence (Q14145 whole entry): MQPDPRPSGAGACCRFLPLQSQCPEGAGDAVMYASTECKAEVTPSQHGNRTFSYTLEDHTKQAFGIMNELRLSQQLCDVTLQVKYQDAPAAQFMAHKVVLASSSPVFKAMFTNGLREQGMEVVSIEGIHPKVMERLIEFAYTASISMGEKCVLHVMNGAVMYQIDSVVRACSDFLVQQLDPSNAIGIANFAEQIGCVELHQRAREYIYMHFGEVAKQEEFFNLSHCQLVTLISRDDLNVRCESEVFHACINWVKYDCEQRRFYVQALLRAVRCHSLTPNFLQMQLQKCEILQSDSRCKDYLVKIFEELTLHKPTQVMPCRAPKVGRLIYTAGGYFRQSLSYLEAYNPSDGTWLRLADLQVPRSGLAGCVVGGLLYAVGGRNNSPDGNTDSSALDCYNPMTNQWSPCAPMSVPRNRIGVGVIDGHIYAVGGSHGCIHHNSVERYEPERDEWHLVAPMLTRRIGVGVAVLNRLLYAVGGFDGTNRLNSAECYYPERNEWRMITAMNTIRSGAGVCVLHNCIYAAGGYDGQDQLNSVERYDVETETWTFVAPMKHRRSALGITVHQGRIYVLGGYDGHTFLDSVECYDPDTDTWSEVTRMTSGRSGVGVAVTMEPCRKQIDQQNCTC

Compound	IC50 [1] [µM]	IC50 [2] [µM]
CC1(C)CCc2cnn(-c3cccc(-c4cccc(-n5ncc(C(=O)O)c5C(F)(F)F)n4)c3)c21 [Example 204, 1-(6-(3-(6,6-Dimethyl-5,6-dihydrocyclopenta[c]pyrazol-1(4H)-yl)phenyl)pyridin-2-yl)-5-(trifluoromethyl)-1H-pyrazole-4-carboxylic Acid]	1 to 10	0.1 to 1
Cn1cc(C2CC2c2c(C(=O)O)cnn2-c2cccc(-c3cccc(C(O)CC4CCCCC4)c3)c2)nn1 (stereo not drawn) [Example 217, 1-(3′-(2-Cyclohexyl-1-hydroxyethyl)-[1,1′-biphenyl]-3-yl)-5-(2-(1-methyl-1H-1,2,3-triazol-4-yl)cyclopropyl)-1H-pyrazole-4-carboxylic acid]	0.1 to 1	0.1 to 1
Cc1nnc(-c2cccc(-c3cccc(-n4ncc(C(=O)O)c4C4CC4)c3)c2)o1 [Example 210, 5S-Cyclopropyl-1-(3′-(5-methyl-1,3,4-oxadiazol-2-yl)-[1,1′-biphenyl]-3-yl)-1H-pyrazole-4-carboxylic acid]	> 100	> 10
CCC[C@@H]1CCCCN1C(=O)c1cccc(-c2cccc(-n3ncc(C(=O)O)c3[C@H]3C[C@@H]3c3cn(CC)nn3)c2)c1 (racemic) [Example 201, 5-((1,2-trans)-2-(1-Ethyl-1H-1,2,3-triazol-4-yl)cyclopropyl)-1-(3′-((R)-2-propylpiperidine-1-carbonyl)-[1,1′-biphenyl]-3-yl)-1H-pyrazole-4-carboxylic acid]	0.01 to 0.1	0.01 to 0.1

Now from value to compound:

IC50 [1] [µM]	IC50 [2] [µM]	Compound
0.1 to 1	0.01 to 0.1	COC1CCCC(COc2cccc(-c3cccc(-n4ncc(C(=O)O)c4[C@H]4C[C@@H]4c4cn(C)nn4)c3)c2)C1 (mixture of isomers) [Example 178, 1-(3′-((3-Methoxycyclohexyl)methoxy)-[1,1′-biphenyl]-3-yl)-5-((1,2-trans)-2-(1-methyl-1H-1,2,3-triazol-4-yl)cyclopropyl)-1H-pyrazole-4-carboxylic acid]
1 to 10	0.1 to 1	Cn1cc([C@H]2C[C@@H]2c2c(C(=O)O)cnn2-c2cccc(-c3cccc(OCc4ccc(-c5ccccc5)cc4)c3)c2)nn1 (racemic) [Example 237, 1-(3′-([1,1′-Biphenyl]-4-ylmethoxy)-[1,1′-biphenyl]-3-yl)-5-((1,2-trans)-2-(1-methyl-1H-1,2,3-triazol-4-yl)cyclopropyl)-1H-pyrazole-4-carboxylic Acid]
0.1 to 1	0.01 to 0.1	Cn1cc([C@@H]2C[C@H]2c2c(C(=O)O)cnn2-c2cccc(-c3cccc(OCC4CCCCC4C(F)(F)F)c3)c2)nn1 (mixture of isomers) [Example 148, 5-((1,2-trans)-2-(1-Methyl-1H-1,2,3-triazol-4-yl)cyclopropyl)-1-(3′-((2-(trifluoromethyl)cyclohexyl)methoxy)-[1,1′-biphenyl]-3-yl)-1H-pyrazole-4-carboxylic acid]
0.1 to 1	0.01 to 0.1	Cn1cc([C@@H]2C[C@H]2c2c(C(=O)O)cnn2-c2cccc(-c3cccc(OCC4CCCCC4)c3)c2)nn1 [Example 171, 1-(3′-(Cyclohexylmethoxy)-[1,1′-biphenyl]-3-yl)-5-((1R,2R)-2-(1-methyl-1H-1,2,3-triazol-4-yl)cyclopropyl)-1H-pyrazole-4-carboxylic acid]
0.1 to 1	0.1 to 1	CC(Oc1cccc(-c2cccc(-n3ncc(C(=O)O)c3[C@H]3C[C@@H]3c3cn(C)nn3)c2)c1)C1CCCCC1 (single isomer, unassigned) [Example 191]
